Measured values from patent US11033539B2, “Compounds of formulas (VII), (VIII), (IX), (XI), (XII), (XIII), and (XIV) as muscarinic receptor 4(M4) antagonists for treating neurological diseases” (Neurocrine Biosciences, Inc., priority 2015, dated 2021).

Tests used:
[1] = biological target: human M1 receptor (Homo sapiens (Human), UniProt P11229); experiment: Radioligand (tritiated N-methylscopolamine) binding assay, M1; conditions: CHO cell membranes expressing human M1; 1.5 nM tritiated N-methylscopolamine; 90 min, 37° C.; read-out: Ki against M1 receptor (Table 21, M1)
In short: (§1)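 Inhibition of radioligand binding gave Ki. The assay used recombinant CHO membranes, 1.5 nM tracer, a 90 min/37 °C incubation and pH 7.4 buffer.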

[2] = biological target: human M2 receptor (Homo sapiens (Human), UniProt P08172); experiment: Radioligand (tritiated N-methylscopolamine) binding assay, M2; conditions: CHO cell membranes expressing human M2; 1.5 nM tritiated N-methylscopolamine; 90 min, 37° C.; read-out: Ki against M2 receptor (Table 21, M2)
In short: as §1

[3] = biological target: human M3 receptor (Homo sapiens (Human), UniProt P20309); experiment: Radioligand (tritiated N-methylscopolamine) binding assay, M3; conditions: CHO cell membranes expressing human M3; 1.5 nM tritiated N-methylscopolamine; 90 min, 37° C.; read-out: Ki against M3 receptor (Table 21, M3)
In short: as §1

[4] = biological target: human M4 receptor (Homo sapiens (Human), UniProt P08173); experiment: Radioligand (tritiated N-methylscopolamine) binding assay, M4; conditions: Ki against the M4 receptor; membranes from CHO cells expressing human M4; tritiated N-methylscopolamine 1.5 nM; read-out: Ki
In short: as §1

[5] = biological target: human M5 receptor (Homo sapiens (Human), UniProt P08912); experiment: Radioligand (tritiated N-methylscopolamine) binding assay, M5; conditions: CHO cell membranes expressing human M5; 1.5 nM tritiated N-methylscopolamine; 90 min, 37° C.; read-out: Ki against M5 receptor (Table 21, M5)
In short: as §1

Chain of human M2 receptor (P08172 whole entry): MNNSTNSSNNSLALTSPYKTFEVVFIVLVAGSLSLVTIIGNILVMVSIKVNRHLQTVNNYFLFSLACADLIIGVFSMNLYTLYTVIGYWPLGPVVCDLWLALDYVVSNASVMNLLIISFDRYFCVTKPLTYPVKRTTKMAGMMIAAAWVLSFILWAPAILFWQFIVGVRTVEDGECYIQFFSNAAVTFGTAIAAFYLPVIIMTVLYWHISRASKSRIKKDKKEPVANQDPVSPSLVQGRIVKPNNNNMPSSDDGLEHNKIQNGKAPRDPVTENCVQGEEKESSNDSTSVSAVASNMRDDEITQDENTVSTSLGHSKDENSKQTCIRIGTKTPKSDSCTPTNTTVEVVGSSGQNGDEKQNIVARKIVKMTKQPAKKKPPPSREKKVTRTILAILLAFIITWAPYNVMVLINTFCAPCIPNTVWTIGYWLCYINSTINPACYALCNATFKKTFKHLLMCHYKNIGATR
Chain of human M5 receptor (P08912 whole entry): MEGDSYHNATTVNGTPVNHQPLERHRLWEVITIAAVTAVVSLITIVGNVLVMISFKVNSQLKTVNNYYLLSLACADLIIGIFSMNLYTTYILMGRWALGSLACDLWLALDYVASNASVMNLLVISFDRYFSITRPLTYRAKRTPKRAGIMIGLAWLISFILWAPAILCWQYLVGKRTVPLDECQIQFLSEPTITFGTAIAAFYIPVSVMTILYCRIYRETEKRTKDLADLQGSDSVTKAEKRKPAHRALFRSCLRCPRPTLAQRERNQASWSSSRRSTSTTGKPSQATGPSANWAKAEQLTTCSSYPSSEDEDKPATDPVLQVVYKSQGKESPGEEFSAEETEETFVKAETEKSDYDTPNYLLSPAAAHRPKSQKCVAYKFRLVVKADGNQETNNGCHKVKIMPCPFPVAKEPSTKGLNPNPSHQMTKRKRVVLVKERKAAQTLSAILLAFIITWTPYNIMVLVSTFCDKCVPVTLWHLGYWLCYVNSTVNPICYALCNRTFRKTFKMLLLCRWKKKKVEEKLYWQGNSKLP
Chain of human M1 receptor (P11229 whole entry): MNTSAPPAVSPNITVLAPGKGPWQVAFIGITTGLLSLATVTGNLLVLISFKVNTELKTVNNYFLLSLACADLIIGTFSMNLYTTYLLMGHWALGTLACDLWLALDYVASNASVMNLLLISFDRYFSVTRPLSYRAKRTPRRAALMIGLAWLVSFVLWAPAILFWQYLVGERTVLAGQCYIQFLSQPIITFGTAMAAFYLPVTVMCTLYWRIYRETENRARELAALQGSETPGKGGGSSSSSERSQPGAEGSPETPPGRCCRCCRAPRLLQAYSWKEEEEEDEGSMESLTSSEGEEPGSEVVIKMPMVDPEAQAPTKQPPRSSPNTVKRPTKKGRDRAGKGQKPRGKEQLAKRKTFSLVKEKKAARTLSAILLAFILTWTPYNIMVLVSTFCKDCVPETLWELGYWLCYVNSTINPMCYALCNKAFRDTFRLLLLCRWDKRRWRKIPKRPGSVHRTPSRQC
Chain of human M3 receptor (P20309 whole entry): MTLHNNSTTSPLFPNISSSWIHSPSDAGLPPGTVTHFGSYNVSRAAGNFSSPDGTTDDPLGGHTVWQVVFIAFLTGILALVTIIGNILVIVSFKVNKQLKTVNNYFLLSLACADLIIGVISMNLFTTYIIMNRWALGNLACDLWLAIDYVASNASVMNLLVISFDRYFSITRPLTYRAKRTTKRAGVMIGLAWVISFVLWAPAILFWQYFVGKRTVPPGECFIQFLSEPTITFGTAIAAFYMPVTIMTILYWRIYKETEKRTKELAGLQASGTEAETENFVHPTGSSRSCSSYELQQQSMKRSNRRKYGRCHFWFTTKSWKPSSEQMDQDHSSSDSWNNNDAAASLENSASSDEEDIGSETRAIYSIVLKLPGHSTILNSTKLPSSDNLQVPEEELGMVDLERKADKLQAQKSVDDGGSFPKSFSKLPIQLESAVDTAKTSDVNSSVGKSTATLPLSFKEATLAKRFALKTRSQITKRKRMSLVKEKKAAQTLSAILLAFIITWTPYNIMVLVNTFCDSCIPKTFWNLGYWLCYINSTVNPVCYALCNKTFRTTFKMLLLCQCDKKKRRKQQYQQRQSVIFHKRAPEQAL
Chain of human M4 receptor (P08173 whole entry): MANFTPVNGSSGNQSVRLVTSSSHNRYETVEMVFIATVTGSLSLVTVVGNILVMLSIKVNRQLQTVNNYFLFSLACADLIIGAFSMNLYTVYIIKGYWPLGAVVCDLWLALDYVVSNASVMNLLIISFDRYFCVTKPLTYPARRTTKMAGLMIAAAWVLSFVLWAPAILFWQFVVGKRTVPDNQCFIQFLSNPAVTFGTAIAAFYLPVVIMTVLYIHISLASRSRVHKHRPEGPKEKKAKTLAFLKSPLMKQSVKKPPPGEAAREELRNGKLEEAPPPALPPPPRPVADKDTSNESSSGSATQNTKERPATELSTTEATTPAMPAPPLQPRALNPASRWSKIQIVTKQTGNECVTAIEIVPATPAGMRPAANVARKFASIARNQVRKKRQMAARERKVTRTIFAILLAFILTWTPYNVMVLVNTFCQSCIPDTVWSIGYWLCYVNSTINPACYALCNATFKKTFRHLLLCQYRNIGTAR

Q: How did the Ki [1] turn out when `O=C(NCCC1(O)CCN(Cc2ccccc2)CC1)C1CCN(c2ccc(OC(F)(F)F)c(F)c2)CC1` [9-9, N-[2-(1-benzyl-4-hydroxypiperidin-4-yl)ethyl]-1-[3-fluoro-4-(trifluoromethoxy)phenyl]piperidine-4-carboxamide] was run?
A: 100 to 1000 nM

Q: What about the Ki [2] of the same compound?
A: 100 to 1000 nM

Q: What about the Ki [3] of the same compound?
A: > 1000 nM

Q: What about the Ki [4] of the same compound?
A: < 10 nM

Q: And the Ki [5]?
A: > 1000 nM

Q: What does the source list for `C[C@@H]1CN(c2cc(F)c(F)c(F)c2)CCN1C(=O)NCCC1(O)CCN(Cc2ccccc2)CC1` [7-1, (2R)-N-[2-(1-benzyl-4-hydroxypiperidin-4-yl)ethyl]-2-methyl-4-(3,4,5-trifluorophenyl)piperazine-1-carboxamide]?
A: Ki [1]: > 1000 nM; Ki [2]: > 1000 nM; Ki [3]: > 1000 nM; Ki [4]: < 10 nM; Ki [5]: > 1000 nM

Q: How did the Ki [1] turn out when `C[C@@H]1CN(c2cc(F)c(F)c(F)c2)CCN1C(=O)NCCC1CCN(Cc2ccc(O)cc2)CC1` [6-27, (2R)-N-(2-{1-[(4-hydroxyphenyl)methyl]piperidin-4-yl}ethyl)-2-methyl-4-(3,4,5-trifluorophenyl)piperazine-1-carboxamide] was run?
A: 100 to 1000 nM

Q: What about the Ki [2] of the same compound?
A: 10 to 100 nM

Q: And the Ki [3]?
A: 100 to 1000 nM

Q: And the Ki [4]?
A: < 10 nM

Q: What about the Ki [5] of the same compound?
A: > 1000 nM

Q: Which results are given for `C[C@@H]1CN(c2ccc(C#N)c(F)c2)C[C@H](C)N1C(=O)NCCC1CCN(Cc2ccccc2)CC1` [22-4]?
A: Ki [1]: > 1000 nM; Ki [2]: 10 to 100 nM; Ki [3]: > 1000 nM; Ki [4]: < 10 nM; Ki [5]: > 1000 nM

Q: Which results are given for `C[C@@H]1CN(c2ncc(C#N)cn2)C[C@H](C)N1C(=O)NCCC1CCN(Cc2cccc(F)c2)CC1` [6-46, (2R,6S)-4-(5-cyanopyrimidin-2-yl)-N-(2-{1-[(3-fluorophenyl)-methyl]piperidin-4-yl}ethyl)-2,6-dimethylpiperazine-1-carboxamide]?
A: Ki [1]: > 1000 nM; Ki [2]: < 10 nM; Ki [3]: > 1000 nM; Ki [4]: < 10 nM; Ki [5]: > 1000 nM

Q: `O=C(NCCC1CCN(Cc2ccccc2)CC1)N1CCN(c2ncc(C(F)(F)F)cn2)CC1` [5-24, N-[2-(1-benzylpiperidin-4-yl)ethyl]-4-[5-(trifluoromethyl)pyrimidin-2-yl]piperazine-1-carboxamide] was tested. Which Ki [1] did it give?
A: 100 to 1000 nM

Q: What about the Ki [2] of the same compound?
A: 10 to 100 nM

Q: What about the Ki [3] of the same compound?
A: > 1000 nM

Q: What about the Ki [4] of the same compound?
A: < 10 nM

Q: What about the Ki [5] of the same compound?
A: > 1000 nM

Q: Which results are given for `C[C@@H]1CN(c2ncc(F)cc2F)C[C@H](C)N1C(=O)NCCC1CCN(Cc2ccccc2)CC1` [22-5, (2R,6S)-N-[2-(1-benzylpiperidin-4-yl)ethyl]-4-(3,5-difluoropyridin-2-y1)-2,6-dimethylpiperazine-1-carboxamide]?
A: Ki [1]: 100 to 1000 nM; Ki [2]: 10 to 100 nM; Ki [3]: > 1000 nM; Ki [4]: < 10 nM; Ki [5]: 100 to 1000 nM

Q: `O=C(NCCC1CCN(Cc2ccccc2)CC1)N1CCC(c2ccc(C(F)(F)F)cc2)CC1` [8-1, N-[2-(1-benzylpiperidin-4-yl)ethyl]-4-[4-(trifluoromethyl)phenyl]piperidine-1-carboxamide] was tested. Which Ki [1] did it give?
A: 100 to 1000 nM

Q: What about the Ki [2] of the same compound?
A: 100 to 1000 nM

Q: What about the Ki [3] of the same compound?
A: 100 to 1000 nM

Q: And the Ki [4]?
A: < 10 nM

Q: And the Ki [5]?
A: 100 to 1000 nM

Q: Which results are given for `C[C@@H]1CN(c2cc(F)nc(F)c2)CCN1C(=O)NCCC1CCN(Cc2ccccc2)CC1` [22-30]?
A: Ki [1]: 100 to 1000 nM; Ki [2]: 10 to 100 nM; Ki [3]: > 1000 nM; Ki [4]: < 10 nM; Ki [5]: > 1000 nM
